What was measured:
[1] = in vivo; conditions: rat
Description: Induction of catalepsy in the rat
Test: the animals are placed in individual cages and food is withdrawn the day before the test, but drink is taken as desired. The catalepsy test comprises placing each rear paw of the animal on the front paw of the same side and measuring the time (seconds) during which the animal remains in that "crossed paws" position (maximum 30 seconds). Each animal is subjected to three successive tests (one every two minutes), the animal being removed from its cage and placed on the work surface. The tests are carried out one hour after the subcutaneous injection or oral administration of the product or its solvent. The average value of the three tests represents the duration of the catalepsy (in seconds) for each animal. There are five or six rats per experimental group.
Statistical analysis: The effect of the product on the duration of catalepsy is evaluated by an ANOVA, followed by a Dunnett's test, with a probability of p<0.05.

[2] = tested on: verticalisation induced by apomorphine; test: Verticalisation induced by apomorphine in the mouse; format: in vivo; conditions: sc, product s.c. 30 min before apomorphine 0.75 mg/kg s.c., read-out: ID50 verticalisation
Protocol: 1. Verticalisation induced by apomorphine (0.75 mg/kg, s.c.) in the mouse
This test, described by Protais et al., Psychopharmacology, 50, 1-6 (1976), allows the evaluation of the dopaminergic antagonist activity of possible anti-psychotic products. A mouse to which apomorphine has been administered and which has been placed in a cage with vertical bars will, most of the time, remain immobile at the top of the cage, clinging by its four paws to the bars. This verticalisation behaviour is blocked if a dopaminergic antagonist product has been administered before the apomorphine.
Test immediately after subcutaneous (s.c.) administration of the product or solvent (control group), the mouse is placed in a cylindrical cage (14 cm diam.×14 cm height) with vertical bars. Thirty minutes later, the animal receives the dose of apomorphine (0.75 mg/kg, s.c.). […]
Statistical analysis: The effect of the product on verticalisation is evaluated by comparing the scores obtained for each group that has received a dose of product with those obtained for the control group (solvent) using a Mann and Whitney U test with a probability of p<0.05. […]

[3] = tested on: conditioned avoidance response; test: Active avoidance conditioning in the rat; format: in vivo; conditions: sc, administered subcutaneously 30 minutes before the session, read-out: ID50 conditioned avoidance responses
Protocol: 2. Active avoidance conditioning in the rat
This test is conventionally used to characterise anti-psychotic products, cf. P. A. Janssen, C. J. E. Niemegeers, Arzneim-Forsch., 1037-1043 (1961).
It is carried out in a cage having two compartments with an electrified floor, on rats that have been conditioned in the following manner: on presentation of a light signal, the animal must move from the compartment in which it is situated to the other compartment in order not to receive an electric shock. The response of the animal to the light signal is a conditioned Avoidance response. […] The response to the electric shock is an unconditioned Escape response.
Conventionally, anti-psychotic products inhibit the conditioned Avoidance response at doses lower than those which inhibit the non-conditioned Escape response. That differentiates them from other classes of products (in particular, barbiturates and benzodiazepines), which inhibit both responses alike. […]
Test: the animals are their own controls. […] The effects of a product on the avoidance responses are evaluated during a Test Session which takes places the day after a Control Session during the course of which the animals will have received the solvent. […]

[4] = tested on: aggressiveness in isolated mice; test: Test of aggressiveness in isolated mice; format: in vivo; conditions: Mus musculus, sc, administered subcutaneously 30 minutes before test, read-out: ID50 number or duration of the attacks
Description: 3. Test of aggressiveness in isolated mice
This test allows the evaluation of the intraspecies anti-aggressive activity of a product in mice that have been kept in isolation for several months.
Animals: The test uses male CD mice (Charles River) weighing from 22 to 25 g on arrival at the animal house. Immediately on arrival the animals are isolated in individual cages made of opaque black polycarbonate (23×14×13 cm) having a grill lid, and are housed for a prolonged period (approximately 6 months) in the experimentation room.
Selection of pairs of mice: The selection of pairs of aggressive mice that will be used on a long-term basis in the study starts after the animals have been isolated for one month. Once or twice per week a mouse from another cage (intruder) is placed in the cage of a (resident) mouse and the two animals are observed to see if they attack one another (sniffing, pursuing, nipping, biting) during that trial. At the end of the trial (maximum duration of 10 minutes), each mouse is isolated again in its own cage. If attacks have occurred, the same pair will be tested again in the next trial; if there have been no attacks, each mouse of that pair will be placed in the presence of a different mouse in the following trial. […]

Structure (SMILES) | ED50 at 1 h ([1]; sc) | ED50 [2] | ED50 [3] | ED50 [4] | ED50 at 1 h [1]
O=C(CCCN1CCC(O)(c2ccc(Cl)cc2)CC1)c1ccc(F)cc1 [haloperidol, reference compound] | 0.15 mg/kg |  |  |  | 
O=C1N(CCN2CCC(c3noc4cc(F)ccc34)CC2)CCN1c1ccccc1 [Example 5, 1-{2-[4-(6-Fluoro-1,2-benzisoxazol-3-yl)piperid-1-yl]ethyl}-3-phenylimidazolidin-2-one] |  | 0.22 mg/kg | 0.88 mg/kg | 0.18 mg/kg | 34 mg/kg

Reference: patent publication US5780474A, “3-(piperid-4-yl)-1,2-benzisoxazole and 3-(piperazin-4-yl)-1,2-benzisoxazole compounds” (Adir et Compagnie, priority 1996, dated 1998)
